# Results taken from PMC6681393, “Intra-Nasally Administered Oligopeptide Lunasin Acts as a Possible Anti-Psychotic Agent in Mice Models” (Medicina, 2019).
# pKd: −log10 of the molar value. Entries after “also recorded” stand apart in the source; their conditions may differ.
# Legend:
# [1] = tested on: amphetamine-induced hyperlocomotion in ICR mice; assay: Open field locomotor activity, amphetamine-induced hyperlocomotion; type: in vivo, male albino ICR mice; conditions: amphetamine 3 mg/kg i.p.; p = 0.0008 vs control; n = 7–8
# [2] = tested on: brain monoamine levels, amphetamine-treated mice; assay: Brain monoamines and metabolites, amphetamine-treated mice (UHPLC-TOF-MS); type: in vivo, male albino ICR mice; conditions: amphetamine 3 mg/kg i.p.
# hyper-locomotion = conditions: published data; cited from earlier work
# Description: The selected DOI dose in our behavioural studies was 3 mg/kg, which according to published data, corresponds to the dose range (0.625-5.0 mg/kg) that induces hyper-locomotion. […] These altered parameters ...
# [3] = tested on: brain monoamine levels, DOI-treated mice; assay: Brain monoamines and metabolites, DOI-treated mice (UHPLC-TOF-MS); type: in vivo, male albino ICR mice; conditions: DOI 3 mg/kg i.p.
# [4] = tested on: DOI-induced hyperlocomotion in ICR mice; assay: Open field locomotor activity, DOI-induced hyperlocomotion; type: in vivo, male albino ICR mice; conditions: DOI 3 mg/kg i.p.; p = 0.0033 vs control; n = 7–8
# 5-HT2C receptor = conditions: cited from earlier work
# Description: (§1) The aims of the present studies were: to test whether lunasin would show an influence on the dopaminergic system after intranasal administration, and to examine the effect(s) of lunasin on serotonin and glutamatergic systems, which could play an essential role in antipsychoti ... || The binding assay was performed by Eurofins Cerep (France) according to Bryant et al., 1996 [15]. Briefly, the binding of lunasin to 5-HT2A and 5-HT2C receptors was estimated on its ability to displace the specific binding of [^125I]DOI on cell membrane suspensions of HEK-293 cells expressing human recombinant 5-HT2A and 5-HT2C receptors. The radioligand [^125I]DOI has high affinity for 5-HT2A (Kd: 0.3 nM) and 5-HT2C (Kd: 0.9 nM) receptors. Lunasin was tested at concentrations of 1, 10 and 100 µM. The results were expressed as a percent of radioligand specific binding (n = 2).
# 5-HT2A receptor = conditions: cited from earlier work
# Description: as §1
# [5] = tested on: PCP-induced hyperlocomotion in ICR mice; assay: Open field locomotor activity, phencyclidine-induced hyperlocomotion; type: in vivo, male albino ICR mice; conditions: PCP 5 mg/kg i.p.; p < 0.0001 vs control; n = 7–8
# [6] = comparison for lunasin, abstract, source not printed there
# [7] = radioligand affinity quoted in method, Eurofins Cerep, ref Bryant et al., 1996 [15]
smiles,measurement,setting,value
"C[C@H](N)Cc1ccccc1 [Amphetamine, d-amphetamine, reference compound]",increase in total walked distance versus control,[1],approximately 2 -fold
same,brain DOPAC concentration,[2],Neither lunasin per se nor amphetamine changed the DOPAC concentration
same,brain 5-HIAA level,[2]; p < 0.0001,increased brain serotonin and its metabolite 5-HIAA levels
same,brain dopamine level,[2]; p < 0.0001,markedly increased the dopamine level
same,brain noradrenaline level,[2]; p < 0.0001,augmented by amphetamine
same,brain serotonin level,[2]; p < 0.0001,increased brain serotonin and its metabolite 5-HIAA levels
same,brain HVA level,[2]; p = 0.0079,increased by amphetamine
"COc1cc(CC(C)N)c(OC)cc1I (centres unmarked) [DOI, 1-(2,5-dimethoxy-4-iodophenyl)-2-aminopropane, reference compound]",dose range that induces hyper-locomotion,hyper-locomotion,0.625 to 5.0 mg/kg
same,brain 5-HIAA level,[3],up-regulated levels of serotonin and 5-HIAA; also recorded: considerable elevation of brain levels of serotonin and its metabolite 5-HIAA
same,brain dopamine concentration,[3],did not change dopamine brain concentrations; also recorded: did not change the dopamine concentration
same,brain serotonin level,[3],up-regulated levels of serotonin and 5-HIAA; also recorded: considerable elevation of brain levels of serotonin and its metabolite 5-HIAA
same,brain DOPAC concentration,[3]; p < 0.001,elevated; also recorded: increasing DOPAC levels
same,brain noradrenaline level,[3]; p < 0.05,decreased by DOI treatment; also recorded: lowered those of HVA and noradrenaline
same,brain HVA level,[3]; p = 0.0022,decreased by DOI treatment; also recorded: lowered those of HVA and noradrenaline
same,effect on locomotion versus control,[4],induced hyperactivity
same,"receptor affinity, concentration range",5-HT2C receptor; [6],nM concentrations
same,"receptor affinity, concentration range",5-HT2A receptor; [6],nM concentrations
"Cl.c1ccc(C2(N3CCCCC3)CCCCC2)cc1 [PCP, 1-(1-phenylcyclohexyl)piperidine hydrochloride, reference compound]",effect on locomotion versus control,[5],induced hyperlocomotion
COc1cc(CC(C)N)c(OC)cc1I (centres unmarked) [[125I]DOI],pKd,5-HT2C receptor; [7],9.05
same,pKd,5-HT2A receptor; [7],9.52
